Experimental data taken from ChEMBL document CHEMBL1201862, “PubChem BioAssay data set” (2004).
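96-well plates; 48 h exposure; 5 concentrations. Endpoints by linear interpolation between flanking doses. Not reached: highest tested concentration assigned. At the GI50, growth is halved.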 The source made the active and inactive calls. No stated cut-off is given here; in the data, active = GI50 up to about 1.1 µM and inactive = higher.

How the values were obtained:
Assay in all cases: DTP human tumour cell line panel, 48 h
LOX IMVI = tested on: LOX IMVI
EKVX = tested on: EKVX
MDA-MB-231 = tested on: MDA-MB-231
A498 = tested on: A498
SNB-19 = tested on: SNB-19
CAKI-1 = tested on: CAKI-1
UACC-257 = tested on: UACC-257
NCI/ADR-RES = tested on: NCI/ADR-RES
MDA-N = tested on: MDA-N
U-251 = tested on: U-251
HOP-92 = tested on: HOP-92
SK-OV-3 = tested on: SK-OV-3
ACHN = tested on: ACHN
SK-MEL-5 = tested on: SK-MEL-5
786-0 = tested on: 786-0
A549 = tested on: A549
NCI-H522 = tested on: NCI-H522
RPMI-8226 = tested on: RPMI-8226
RXF 393 = tested on: RXF 393
OVCAR-3 = tested on: OVCAR-3

| SMILES | GI50 (LOX IMVI) | GI50 (EKVX) | GI50 (MDA-MB-231) | GI50 (A498) | GI50 (SNB-19) | GI50 (CAKI-1) | GI50 (UACC-257) | GI50 (NCI/ADR-RES) | GI50 (MDA-N) | GI50 (U-251) | GI50 (HOP-92) | GI50 (SK-OV-3) | GI50 (ACHN) | GI50 (SK-MEL-5) | GI50 (786-0) | GI50 (A549) | GI50 (NCI-H522) | GI50 (RPMI-8226) | GI50 (RXF 393) | GI50 (OVCAR-3) |
| --- | --- | --- | --- | --- | --- | --- | --- | --- | --- | --- | --- | --- | --- | --- | --- | --- | --- | --- | --- | --- |
| O=C(O)CCc1nc(-c2ccccc2-n2cccc2)no1 | > 100 µM (inactive) | > 100 µM (inactive) | > 100 µM (inactive) | > 100 µM (inactive) | > 100 µM (inactive) | > 100 µM (inactive) | > 100 µM (inactive) | > 100 µM (inactive) | 31.4 µM (inactive) | > 100 µM (inactive) | > 100 µM (inactive) | > 100 µM (inactive) | > 100 µM (inactive) | > 100 µM (inactive) | > 100 µM (inactive) | > 100 µM (inactive) | 31 µM (inactive) | > 100 µM (inactive) | > 100 µM (inactive) | 29 µM (inactive) |
| CC(=O)Nc1c(C)cc(OCC(=O)O)cc1C | > 100 µM (inactive) | > 100 µM (inactive) | > 100 µM (inactive) | > 100 µM (inactive) | > 100 µM (inactive) | > 100 µM (inactive) | > 100 µM (inactive) | > 100 µM (inactive) | > 100 µM (inactive) | > 100 µM (inactive) | > 100 µM (inactive) | > 100 µM (inactive) | > 100 µM (inactive) | > 100 µM (inactive) | > 100 µM (inactive) | > 100 µM (inactive) | > 100 µM (inactive) | > 100 µM (inactive) | > 100 µM (inactive) | > 100 µM (inactive) |
| CN(O)C(=S)c1ccccc1 | 1.57 µM (inactive) | 15.5 µM (inactive) | 9.33 µM (inactive) | 20.2 µM (inactive) | 30.2 µM (inactive) | 4.25 µM (inactive) | 13.1 µM (inactive) | 0.746 µM (active) | 6.95 µM (inactive) | 3.18 µM (inactive) | 5.25 µM (inactive) | 11.3 µM (inactive) | 4.42 µM (inactive) | 1.7 µM (inactive) | 1.38 µM (inactive) | 4.26 µM (inactive) | 0.0944 µM (active) | 0.325 µM (active) | 3.19 µM (inactive) | 2.45 µM (inactive) |
| O=C1CC(c2ccccc2)n2c(nc3ccccc32)N1 (stereo not given) | 39.4 µM (inactive) | 73.5 µM (inactive) | > 100 µM (inactive) | 45.5 µM (inactive) | > 100 µM (inactive) | 35.3 µM (inactive) | 41.9 µM (inactive) | > 100 µM (inactive) | 73.5 µM (inactive) | 71.8 µM (inactive) | 17.9 µM (inactive) | > 100 µM (inactive) | > 100 µM (inactive) | 20.5 µM (inactive) | 74.8 µM (inactive) | > 100 µM (inactive) | 29.9 µM (inactive) | 27 µM (inactive) | 21 µM (inactive) | 54.2 µM (inactive) |
| C=C(Br)C/N=C/N(C)C | > 100 µM (inactive) | > 100 µM (inactive) | > 100 µM (inactive) | > 100 µM (inactive) | > 100 µM (inactive) | > 100 µM (inactive) | > 100 µM (inactive) | > 100 µM (inactive) | > 100 µM (inactive) | > 100 µM (inactive) | > 100 µM (inactive) | > 100 µM (inactive) | > 100 µM (inactive) | > 100 µM (inactive) | > 100 µM (inactive) | > 100 µM (inactive) | > 100 µM (inactive) | > 100 µM (inactive) | > 100 µM (inactive) | > 100 µM (inactive) |
| O=S1(=O)c2ccccc2NC(=S)N1c1ccccc1 | 26.7 µM (inactive) | 32.4 µM (inactive) | > 57.8 µM (inactive) | > 58.9 µM (inactive) | 7.1 µM (inactive) | > 72.8 µM (inactive) | 40 µM (inactive) | 60.1 µM (inactive) | 36 µM (inactive) | > 72.3 µM (inactive) | 3.89 µM (inactive) | > 100 µM (inactive) | 70.6 µM (inactive) | 32 µM (inactive) | > 87.3 µM (inactive) | 6.17 µM (inactive) | 21.3 µM (inactive) | > 59.2 µM (inactive) | > 54.2 µM (inactive) | 41.4 µM (inactive) |
| C=C1CCCC(C)(C)C1CCC1(C)CCC(C(C)C(=O)OC)OO1 (stereo not given) | 0.471 µM (active) | 7.91 µM (inactive) | 9.08 µM (inactive) | 5.87 µM (inactive) | 9.08 µM (inactive) | 0.383 µM (active) | > 20.2 µM (inactive) | 7.08 µM (inactive) | 3.73 µM (inactive) | 2.94 µM (inactive) | 0.764 µM (active) | 4.4 µM (inactive) | 1.27 µM (inactive) | 5.19 µM (inactive) | 0.36 µM (active) | 1.28 µM (inactive) | 3.34 µM (inactive) | 5.56 µM (inactive) | 4.04 µM (inactive) | 21.8 µM (inactive) |
| Cc1cc(C2(c3cc(C)c(O)c4ncccc34)OC(=O)c3ccccc32)c2cccnc2c1O | 0.00601 µM (active) | 0.0203 µM (active) | 0.0692 µM (active) | 1.47 µM (inactive) | 0.0174 µM (active) | 0.00953 µM (active) | 2.77 µM (inactive) | 0.0344 µM (active) | 0.00925 µM (active) | 0.0288 µM (active) | 0.252 µM (active) | 4.52 µM (inactive) | 0.00662 µM (active) | 0.0231 µM (active) | 0.0178 µM (active) | < 0.001 µM (active) | 0.01 µM (active) | 0.012 µM (active) | 0.741 µM (active) | 0.0056 µM (active) |
| CCOCCOC(=O)C1CCC(=O)N1CN(C(C)=O)c1cc(OC)ccc1OC (stereo not given) | > 100 µM (inactive) | > 100 µM (inactive) | > 100 µM (inactive) | > 100 µM (inactive) | > 100 µM (inactive) | > 100 µM (inactive) | > 100 µM (inactive) | > 100 µM (inactive) | > 100 µM (inactive) | > 100 µM (inactive) | > 100 µM (inactive) | > 100 µM (inactive) | > 100 µM (inactive) | > 100 µM (inactive) | > 100 µM (inactive) | > 100 µM (inactive) | > 100 µM (inactive) | > 100 µM (inactive) | > 100 µM (inactive) | > 100 µM (inactive) |
| O=C1Nc2ccc(Br)cc2/C1=N/S(=O)(=O)O | 10 µM (inactive) | 29.2 µM (inactive) | 16.3 µM (inactive) | > 100 µM (inactive) | > 100 µM (inactive) | 35.6 µM (inactive) | 15.9 µM (inactive) | 29.4 µM (inactive) | 11.4 µM (inactive) | 13.6 µM (inactive) | > 100 µM (inactive) | 79.8 µM (inactive) | 45.9 µM (inactive) | 16.1 µM (inactive) | 25.4 µM (inactive) | 26.1 µM (inactive) | 31.3 µM (inactive) | 14.1 µM (inactive) | 48.4 µM (inactive) | 40.7 µM (inactive) |
| CC(C)(C)N(Cc1ccccc1)C(=O)/C=C\[S+]([O-])c1ccccc1 (stereo not given) | 1.73 µM (inactive) | 10.5 µM (inactive) | 3.27 µM (inactive) | 13.4 µM (inactive) | 9.77 µM (inactive) | 5.85 µM (inactive) | 5.08 µM (inactive) | 2.55 µM (inactive) | 2.16 µM (inactive) | 3.88 µM (inactive) | 3.37 µM (inactive) | 7.62 µM (inactive) | 4.71 µM (inactive) | 5.25 µM (inactive) | 1.83 µM (inactive) | 11.5 µM (inactive) | 1.19 µM (inactive) | 1.84 µM (inactive) | 3.8 µM (inactive) | 2.48 µM (inactive) |
| CC1=C/C(=N\NS(=O)(=O)c2ccc([N+](=O)[O-])cc2)CC(C)(C)C1 | > 100 µM (inactive) | > 100 µM (inactive) | > 100 µM (inactive) | > 100 µM (inactive) | 69 µM (inactive) | > 100 µM (inactive) | 80.5 µM (inactive) | 93.5 µM (inactive) | > 100 µM (inactive) | 97.1 µM (inactive) | 10.4 µM (inactive) | > 100 µM (inactive) | 54.6 µM (inactive) | 66.1 µM (inactive) | > 100 µM (inactive) | 48.8 µM (inactive) | 86.5 µM (inactive) | > 100 µM (inactive) | > 100 µM (inactive) | > 100 µM (inactive) |
| C#CCn1ncc2c(SCc3ccccc3)ncnc21 | > 100 µM (inactive) | 97.7 µM (inactive) | > 100 µM (inactive) | > 100 µM (inactive) | > 100 µM (inactive) | 57.8 µM (inactive) | 70 µM (inactive) | > 100 µM (inactive) | > 100 µM (inactive) | > 100 µM (inactive) | > 100 µM (inactive) | > 100 µM (inactive) | > 100 µM (inactive) | 36.1 µM (inactive) | > 100 µM (inactive) | > 100 µM (inactive) | 73.1 µM (inactive) | > 100 µM (inactive) | > 100 µM (inactive) | > 100 µM (inactive) |
| CN(C)CCNC(=O)c1cccc2nc3c(nc12)-c1ccccc1C3=O | 2.83 µM (inactive) | 22.8 µM (inactive) | 7.89 µM (inactive) | 14.4 µM (inactive) | 18.3 µM (inactive) | 13.6 µM (inactive) | 13.4 µM (inactive) | 12.4 µM (inactive) | 9.89 µM (inactive) | 13.4 µM (inactive) | 16.4 µM (inactive) | 26.7 µM (inactive) | 4.78 µM (inactive) | 12.1 µM (inactive) | 8.11 µM (inactive) | 12.5 µM (inactive) | 13.5 µM (inactive) | 7.38 µM (inactive) | 16.8 µM (inactive) | 16.6 µM (inactive) |
